Data published in ChEMBL document CHEMBL5584283, “Evaluation of Antibacterial Functionalized Dihydropyrimidine Photoaffinity Probes Toward Mechanism of Action Studies” (ACS Med Chem Lett, 2024).
≈ marks a conversion by molar mass, not a printed value.

Experiments:
Erythrocyte = test: Hemolytic activity in sheep RBC assessed as hemolysis incubated for 1 hr by absorbance based analysis; assay type: toxicity, cell-based, Ovis aries
Staphylococcus aureus [1] = test: Antibacterial activity against Staphylococcus aureus ATCC 33591 assessed as reduction in bacterial growth measured after 18 hrs by two-fold serial dilution method; assay type: functional
Staphylococcus aureus [2] = test: Antibacterial activity against Staphylococcus aureus ATCC 43300 assessed as reduction in bacterial growth measured after 18 hrs by two-fold serial dilution method; assay type: functional
Staphylococcus aureus [3] = test: Antibacterial activity against Staphylococcus aureus ATCC 43300 assessed as partial growth inhibition at high concentration measured after 18 hrs by two-fold serial dilution method relative to control; assay type: functional
Staphylococcus aureus [4] = test: Antibacterial activity against Staphylococcus aureus ATCC 12600 assessed as partial growth inhibition at high concentration measured after 18 hrs by two-fold serial dilution method relative to control; assay type: functional
Staphylococcus aureus [5] = test: Antibacterial activity against Staphylococcus aureus ATCC 12600 assessed as reduction in bacterial growth measured after 18 hrs by two-fold serial dilution method; assay type: functional
Staphylococcus aureus [6] = test: Antibacterial activity against Staphylococcus aureus ATCC 33591 assessed as partial growth inhibition at high concentration measured after 18 hrs by two-fold serial dilution method relative to control; assay type: functional

| Compound | HC20 (Erythrocyte) [µg/mL] | MIC (Staphylococcus aureus [1]) [µg/mL] | MIC (Staphylococcus aureus [2]) [µg/mL] | growth inhibition (GI) (Staphylococcus aureus [3]) [%] | growth inhibition (GI) (Staphylococcus aureus [4]) [%] | MIC (Staphylococcus aureus [5]) [µg/mL] | growth inhibition (GI) (Staphylococcus aureus [6]) [%] |
| --- | --- | --- | --- | --- | --- | --- | --- |
| CCOC(=O)C1=C(c2cccc(C(F)(F)F)c2)NC(N)=NC1c1ccc(CC(C)C)cc1 (configuration not stated) | 64 | – | – | – | – | – | – |
| CCOC(=O)C1=C(c2ccccc2)NC(N)=NC1c1cccc(F)c1 (configuration not stated) | – | 64 (≈ 189 µM) | 64 (≈ 189 µM) | >95 | >95 | 64 (≈ 189 µM) | >95 |
| CCOC(=O)C1=C(CC)NC(N)=NC1c1ccc(-c2ccccc2)cc1 (configuration not stated) | – | – | 4 (≈ 11.4 µM) | >95 | >95 | 4 (≈ 11.4 µM) | – |
| CCOC(=O)C1=C(c2ccccc2)NC(N)=NC1c1ccc(OC)cc1 (configuration not stated) | > 64 | – | – | – | >95 | 64 (≈ 182 µM) | – |
| CCOC(=O)C1=C(CC)NC(N)=NC1c1ccc(CC(C)C)cc1 (configuration not stated) | > 64 | – | – | >95 | >95 | – | – |
| COc1cc(Cc2cnc(N)nc2N)cc(OC)c1OC [TRIMETHOPRIM] | – | 8 (≈ 27.6 µM) | 8 (≈ 27.6 µM) | >95 | >95 | 32 (≈ 110 µM) | >95 |
| CCOC(=O)C1=C(c2cccc(F)c2)NC(N)=NC1c1ccc(CC(C)C)cc1 (configuration not stated) | > 64 | – | – | – | – | – | – |
| CCOC(=O)C1=C(c2ccccc2)NC(N)=NC1c1ccc(C)c(C)c1 (configuration not stated) | – | – | – | – | >95 | – | >95 |
| CCOC(=O)C1=C(c2ccccc2)NC(N)=NC1c1ccccc1 (configuration not stated) | > 64 | – | – | – | – | – | – |
| CCOC(=O)C1=C(c2ccccc2)NC(N)=NC1c1ccccc1OC (configuration not stated) | > 64 | – | – | – | – | – | – |
| CCOC(=O)C1=C(c2cccc(C(F)(F)F)c2)NC(N)=NC1c1cc(Cl)cc(Cl)c1 (configuration not stated) | > 64 | – | – | – | – | – | – |
| CCOC(=O)C1=C(c2ccccc2)NC(N)=NC1c1ccc(C(C)C)cc1 (configuration not stated) | > 64 | – | – | >95 | >95 | – | >95 |
| CCOC(=O)C1=C(c2ccccc2)NC(N)=NC1c1c(C)cccc1C (configuration not stated) | – | – | 32 (≈ 91.6 µM) | >95 | >95 | 32 (≈ 91.6 µM) | – |
| CCOC(=O)C1=C(c2ccccc2)NC(N)=NC1c1ccccc1C (configuration not stated) | – | 64 (≈ 191 µM) | 64 (≈ 191 µM) | >95 | >95 | 64 (≈ 191 µM) | >95 |
| CCOC(=O)C1=C(c2cccc(C)c2)NC(N)=NC1c1cc(Cl)cc(Cl)c1 (configuration not stated) | > 64 | – | – | – | – | – | – |
| CCOC(=O)C1=C(c2ccccc2)NC(N)=NC1c1ccc(N(C)C)cc1 (configuration not stated) | – | 64 (≈ 176 µM) | 64 (≈ 176 µM) | >95 | >95 | 64 (≈ 176 µM) | >95 |
| CCOC(=O)C1=C(c2ccccc2)NC(N)=NC1c1ccc(C)cc1C (configuration not stated) | – | 32 (≈ 91.6 µM) | 32 (≈ 91.6 µM) | >95 | >95 | 32 (≈ 91.6 µM) | >95 |
| GENTAMICIN | – | 4 | 128 | – | – | 4 | – |
| CCOC(=O)C1=C(c2ccccc2)NC(N)=NC1c1cccc([N+](=O)[O-])c1 (configuration not stated) | – | – | – | >95 | – | – | >95 |
| CCOC(=O)C1=C(c2ccccc2)NC(N)=NC1c1ccc(-c2ccccc2)cc1 (configuration not stated) | > 64 | – | – | – | – | – | – |
| CCOC(=O)C1=C(c2cccc(F)c2)NC(N)=NC1c1cc(Cl)cc(Cl)c1 (configuration not stated) | > 64 | – | – | – | – | – | – |
| CCOC(=O)C1=C(c2ccccc2)NC(N)=NC1c1cc(Cl)cc(Cl)c1 (configuration not stated) | > 64 | – | – | >95 | >95 | – | >95 |
| CCOC(=O)C1=C(c2ccccc2)NC(N)=NC1c1cccc(Cl)c1 (configuration not stated) | > 64 | – | – | – | – | – | – |
| CCOC(=O)C1=C(c2ccccc2)NC(N)=NC1c1cccc(C)c1 (configuration not stated) | – | 64 (≈ 191 µM) | 64 (≈ 191 µM) | >95 | >95 | 64 (≈ 191 µM) | >95 |
| CCOC(=O)C1=C(c2ccccc2)NC(N)=NC1c1ccc(CC(C)C)cc1 (configuration not stated) | > 64 | – | – | – | – | – | >95 |
| CCOC(=O)C1=C(c2ccccc2)NC(N)=NC1c1ccc(F)cc1 (configuration not stated) | – | 64 (≈ 189 µM) | 64 (≈ 189 µM) | >95 | >95 | 64 (≈ 189 µM) | >95 |
